Data published in ChEMBL document CHEMBL4004838, “Design and synthesis of novel phenyl -1, 4-beta-carboline-hybrid molecules as potential anticancer agents” (Eur J Med Chem, 2017).

Columns and labels:
SK-MEL-2 = test: Growth inhibition of human SK-MEL-2 cells assessed as cell growth at 0.1 uM incubated for 48 hrs by sulforhodamine B assay relative to control; format: functional; conditions: SK-MEL-2, 48 h, read-out: Activity
TK-10 = test: Growth inhibition of human TK10 cells assessed as cell growth at 1 uM incubated for 48 hrs by sulforhodamine B assay relative to control; format: functional; conditions: TK-10, 48 h, read-out: Activity
MOLT-4 = test: Growth inhibition of human MOLT4 cells assessed as cell growth at 0.1 uM incubated for 48 hrs by sulforhodamine B assay relative to control; format: functional; conditions: MOLT-4, 48 h, read-out: Activity
SF-295 [1] = test: Growth inhibition of human SF295 cells assessed as cell growth at 0.01 uM incubated for 48 hrs by sulforhodamine B assay relative to control; format: functional; conditions: SF-295, 48 h, read-out: Activity
SF-295 [2] = test: Growth inhibition of human SF295 cells assessed as cell growth at 0.1 uM incubated for 48 hrs by sulforhodamine B assay relative to control; format: functional; conditions: SF-295, 48 h, read-out: Activity
OVCAR-3 = test: Growth inhibition of human OVCAR3 cells assessed as cell growth at 100 uM incubated for 48 hrs by sulforhodamine B assay relative to control; format: functional; conditions: OVCAR-3, 48 h, read-out: Activity
A549 [3] = test: Growth inhibition of human A549/ATCC cells assessed as cell growth at 0.01 uM incubated for 48 hrs by sulforhodamine B assay relative to control; format: functional; conditions: A549, 48 h, read-out: Activity
NCI-H522 = test: Growth inhibition of human NCI-H522 cells assessed as cell growth at 100 uM incubated for 48 hrs by sulforhodamine B assay relative to control; format: functional; conditions: NCI-H522, 48 h, read-out: Activity
SF-295 [4] = test: Growth inhibition of human SF295 cells assessed as cell growth at 1 uM incubated for 48 hrs by sulforhodamine B assay relative to control; format: functional; conditions: SF-295, 48 h, read-out: Activity
K562 = test: Growth inhibition of human K562 cells incubated for 48 hrs by sulforhodamine B assay; format: functional; conditions: K562, 48 h
CCRF-CEM = test: Growth inhibition of human CCRF-CEM cells assessed as cell growth at 1 uM incubated for 48 hrs by sulforhodamine B assay relative to control; format: functional; conditions: read-out: Activity
SF-268 = test: Growth inhibition of human SF268 cells assessed as cell growth at 100 uM incubated for 48 hrs by sulforhodamine B assay relative to control; format: functional; conditions: SF-268, 48 h, read-out: Activity
LOX IMVI [5] = test: Growth inhibition of human LOXIMVI cells assessed as cell growth at 100 uM incubated for 48 hrs by sulforhodamine B assay relative to control; format: functional; conditions: read-out: Activity
ACHN [6] = test: Growth inhibition of human ACHN cells assessed as cell growth at 1 uM incubated for 48 hrs by sulforhodamine B assay relative to control; format: functional; conditions: read-out: Activity
EKVX [7] = test: Growth inhibition of human EKVX cells assessed as cell growth at 100 uM incubated for 48 hrs by sulforhodamine B assay relative to control; format: functional; conditions: read-out: Activity
RPMI-8226 = test: Growth inhibition of human RPMI8226 cells assessed as cell growth at 1 uM incubated for 48 hrs by sulforhodamine B assay relative to control; format: functional; conditions: RPMI-8226, 48 h, read-out: Activity
LOX IMVI [8] = test: Growth inhibition of human LOXIMVI cells assessed as cell growth at 0.01 uM incubated for 48 hrs by sulforhodamine B assay relative to control; format: functional; conditions: read-out: Activity
SK-MEL-5 = test: Growth inhibition of human SK-MEL-5 cells assessed as cell growth at 1 uM incubated for 48 hrs by sulforhodamine B assay relative to control; format: functional; conditions: SK-MEL-5, 48 h, read-out: Activity
ACHN [9] = test: Growth inhibition of human ACHN cells incubated for 48 hrs by sulforhodamine B assay; format: functional
A498 = test: Growth inhibition of human A498 cells assessed as cell growth at 1 uM incubated for 48 hrs by sulforhodamine B assay relative to control; format: functional; conditions: A498, 48 h, read-out: Activity
SW-620 [10] = test: Growth inhibition of human SW620 cells assessed as cell growth at 1 uM incubated for 48 hrs by sulforhodamine B assay relative to control; format: functional; conditions: SW-620, 48 h, read-out: Activity
ACHN [11] = test: Growth inhibition of human ACHN cells assessed as cell growth at 100 uM incubated for 48 hrs by sulforhodamine B assay relative to control; format: functional; conditions: read-out: Activity
A549 [12] = test: Growth inhibition of human A549/ATCC cells assessed as cell growth at 0.1 uM incubated for 48 hrs by sulforhodamine B assay relative to control; format: functional; conditions: A549, 48 h, read-out: Activity
OVCAR-4 = test: Growth inhibition of human OVCAR4 cells assessed as cell growth at 0.1 uM incubated for 48 hrs by sulforhodamine B assay relative to control; format: functional; conditions: OVCAR-4, 48 h, read-out: Activity
COLO 205 = test: Growth inhibition of human COLO205 cells assessed as cell growth at 0.1 uM incubated for 48 hrs by sulforhodamine B assay relative to control; format: functional; conditions: COLO 205, 48 h, read-out: Activity
U-251 = test: Growth inhibition of human U251 cells assessed as cell growth at 100 uM incubated for 48 hrs by sulforhodamine B assay relative to control; format: functional; conditions: U-251, 48 h, read-out: Activity
Malme-3M = test: Growth inhibition of human MALME-3M cells assessed as cell growth at 0.01 uM incubated for 48 hrs by sulforhodamine B assay relative to control; format: functional; conditions: read-out: Activity
HT-29 = test: Growth inhibition of human HT-29 cells assessed as cell growth at 0.1 uM incubated for 48 hrs by sulforhodamine B assay relative to control; format: functional; conditions: HT-29, 48 h, read-out: Activity
SW-620 [13] = test: Growth inhibition of human SW620 cells assessed as cell growth at 0.01 uM incubated for 48 hrs by sulforhodamine B assay relative to control; format: functional; conditions: SW-620, 48 h, read-out: Activity
EKVX [14] = test: Growth inhibition of human EKVX cells incubated for 48 hrs by sulforhodamine B assay; format: functional
PC-3 = test: Growth inhibition of human PC3 cells assessed as cell growth at 100 uM incubated for 48 hrs by sulforhodamine B assay relative to control; format: functional; conditions: PC-3, 48 h, read-out: Activity
IGROV-1 = test: Growth inhibition of human IGROV1 cells assessed as cell growth at 100 uM incubated for 48 hrs by sulforhodamine B assay relative to control; format: functional; conditions: IGROV-1, 48 h, read-out: Activity
Albumin = Albumin (Bos taurus, UniProt P02769); test: Binding affinity to Bovine serum albumin assessed as at 0.10 to 1 uM by UV-Visible spectrophotometric method; format: ADME; conditions: cattle, isolated protein
Albumin, sequence (P02769 whole entry): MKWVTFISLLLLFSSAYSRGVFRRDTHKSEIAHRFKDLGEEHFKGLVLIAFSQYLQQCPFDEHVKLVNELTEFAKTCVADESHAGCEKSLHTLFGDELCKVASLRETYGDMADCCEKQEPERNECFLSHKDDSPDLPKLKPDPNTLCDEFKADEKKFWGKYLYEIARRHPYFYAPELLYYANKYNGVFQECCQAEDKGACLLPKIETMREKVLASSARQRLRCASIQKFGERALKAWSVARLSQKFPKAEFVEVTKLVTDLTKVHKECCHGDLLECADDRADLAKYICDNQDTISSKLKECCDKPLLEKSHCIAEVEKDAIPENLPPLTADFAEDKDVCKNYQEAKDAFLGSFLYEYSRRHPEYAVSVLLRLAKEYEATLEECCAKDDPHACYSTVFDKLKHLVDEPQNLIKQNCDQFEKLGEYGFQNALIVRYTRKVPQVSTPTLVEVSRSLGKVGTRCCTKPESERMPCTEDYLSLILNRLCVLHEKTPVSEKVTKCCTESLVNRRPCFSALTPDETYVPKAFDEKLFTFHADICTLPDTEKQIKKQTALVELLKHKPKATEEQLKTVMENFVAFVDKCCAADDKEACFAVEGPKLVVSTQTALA

[15] = read-out: LC50 (the source's name)
[16] = read-out: pLC50 (the source's name) (converted)

`c1ccc2c3c([nH]c2c1)C(c1ccc(C2NCCc4c2[nH]c2ccccc42)cc1)NCC3` (racemic) gave a growth at 0.1 µM (SK-MEL-2) of 94%, a growth at 1 µM (TK-10) of 97% and a growth at 0.1 µM (MOLT-4) of 101%. For the same compound, the growth at 0.01 µM (SF-295 [1]) was 90%, the growth at 0.1 µM (SF-295 [2]) was 92% and the growth at 100 µM (OVCAR-3) was 82%. The growth at 0.01 µM (A549 [3]) was 104%, the growth at 100 µM (NCI-H522) was 81% and the growth at 1 µM (SF-295 [4]) was 84%. For the same compound, the GI50 (K562; read-out: GI50) was 2.44 µM, the CC50 (K562; [15]) was 9.75 µM and the TGI (K562; read-out: TGI) was 4.88 µM. For the same compound, the GI50 (K562; read-out: pGI50 (converted)) was 0.245 µM, the CC50 (K562; [16]) was 0.977 µM and the TGI (K562; read-out: pTGI (converted)) was 4.9 µM. It also gave a growth at 1 µM (CCRF-CEM) of 21%, a growth at 100 µM (SF-268) of 83% and a growth at 100 µM (LOX IMVI [5]) of 84%. It also gave a growth at 1 µM (ACHN [6]) of 42%, a growth at 100 µM (EKVX [7]) of 81% and a growth at 1 µM (RPMI-8226) of 2%. For the same compound, the growth at 0.01 µM (LOX IMVI [8]) was 94%, the growth at 1 µM (SK-MEL-5) was 94% and the CC50 (ACHN [9]; [15]) was 4.58 µM. For the same compound, the GI50 (ACHN [9]; read-out: pGI50 (converted)) was 0.708 µM, the CC50 (ACHN [9]; [16]) was 4.57 µM and the TGI (ACHN [9]; read-out: pTGI (converted)) was 2 µM. It also gave a growth at 1 µM (A498) of 65%, a growth at 1 µM (SW-620 [10]) of 86% and a growth at 100 µM (ACHN [11]) of -91%. For the same compound, the growth at 0.1 µM (A549 [12]) was 95%, the growth at 0.1 µM (OVCAR-4) was 91% and the growth at 0.1 µM (COLO 205) was 94%. It also gave a growth at 100 µM (U-251) of 92%, a growth at 0.01 µM (Malme-3M) of 89% and a growth at 0.1 µM (HT-29) of 103%. It also gave a growth at 0.01 µM (SW-620 [13]) of 101%, a GI50 (EKVX [14]; read-out: GI50) of 1.42 µM and a CC50 (EKVX [14]; [15]) of 8.12 µM. It also gave a TGI (EKVX [14]; read-out: TGI) of 3.39 µM, a GI50 (EKVX [14]; read-out: pGI50 (converted)) of 2.24 µM and a CC50 (EKVX [14]; [16]) of 8.13 µM. The TGI (EKVX [14]; read-out: pTGI (converted)) was 3.39 µM, the growth at 100 µM (PC-3) was -93% and the growth at 100 µM (IGROV-1) was 89%. The Activity (Albumin) was “Active”.

`c1ccc2[nH]c(-c3ccc(-c4nccc5c4[nH]c4ccccc45)cc3)nc2c1` showed a growth at 0.1 µM (SK-MEL-2) of 97%, a growth at 1 µM (TK-10) of 96% and a growth at 0.1 µM (MOLT-4) of 98%. The growth at 0.01 µM (SF-295 [1]) was 90%, the growth at 0.1 µM (SF-295 [2]) was 97% and the growth at 100 µM (OVCAR-3) was 58%. The growth at 0.01 µM (A549 [3]) was 98%, the growth at 100 µM (NCI-H522) was 46% and the growth at 1 µM (SF-295 [4]) was 94%. The GI50 (K562; read-out: GI50) was 2.33 µM, the CC50 (K562; [15]) was 4.24 µM and the TGI (K562; read-out: TGI) was 5.47 µM. The GI50 (K562; read-out: pGI50 (converted)) was 2.34 µM, the CC50 (K562; [16]) was 42.7 µM and the TGI (K562; read-out: pTGI (converted)) was 5.5 µM. For the same compound, the growth at 1 µM (CCRF-CEM) was 103%, the growth at 100 µM (SF-268) was 52% and the growth at 100 µM (LOX IMVI [5]) was 49%. The growth at 1 µM (ACHN [6]) was 101%, the growth at 100 µM (EKVX [7]) was 44% and the growth at 1 µM (RPMI-8226) was 106%. It also gave a growth at 0.01 µM (LOX IMVI [8]) of 93%, a growth at 1 µM (SK-MEL-5) of 94% and a GI50 (ACHN [9]; read-out: GI50) of 2.05 µM. The CC50 (ACHN [9]; [15]) was 8.46 µM, the TGI (ACHN [9]; read-out: TGI) was 4.17 µM and the GI50 (ACHN [9]; read-out: pGI50 (converted)) was 2.04 µM. It also gave a CC50 (ACHN [9]; [16]) of 8.51 µM, a TGI (ACHN [9]; read-out: pTGI (converted)) of 4.17 µM and a growth at 1 µM (A498) of 92%. The growth at 1 µM (SW-620 [10]) was 96%, the growth at 100 µM (ACHN [11]) was 98% and the growth at 0.1 µM (A549 [12]) was 98%. The growth at 0.1 µM (OVCAR-4) was 98%, the growth at 0.1 µM (COLO 205) was 97% and the growth at 100 µM (U-251) was 75%. It also gave a growth at 0.01 µM (Malme-3M) of 93%, a growth at 0.1 µM (HT-29) of 98% and a growth at 0.01 µM (SW-620 [13]) of 103%. The GI50 (EKVX [14]; read-out: GI50) was 3.45 µM, the CC50 (EKVX [14]; [15]) was > 1 µM and the GI50 (EKVX [14]; read-out: pGI50 (converted)) was 3.47 µM. The CC50 (EKVX [14]; [16]) was > 100 µM, the TGI (EKVX [14]; read-out: pTGI (converted)) was 17 µM and the growth at 100 µM (PC-3) was 71%. For the same compound, the growth at 100 µM (IGROV-1) was 47% and the Activity (Albumin) was “Active”.
